Converted amounts (≈) assume the structure as drawn. Like-named read-outs stand apart in the source and are kept apart here.
Experiments:
[1] = system: ordinary kuramochi cells; assay: XTT cell viability assay, ordinary kuramochi cells; format: cell-based; conditions: Homo sapiens
Experimental: Kuramochi cells is a high-grade serous ovarian carcinoma (HGSOC) cell line purchased from Japan Cell Bank. Gene expressions of this cell line was previously confirmed to be mimicking HGSOC (Domcke, S.; Sinha, R.; Levine, D. A.; Sander, C.; Schultz, N. Nat. Commun. 2013, 4, 2126). The cell line was maintained in Dulbecco's Modified Eagle Medium (DMEM; Sigma, St. Louis, Mo., USA) supplemented with 10% fetal bovine serum (FBS), 0.1% non-essential amino acids (NEAA), 2 mM L-glutamine, and 1% penicillin-streptomycin. The cells were incubated at 37° C. with 5% CO2.
(§1) The half-maximal inhibitory concentration (IC50) of BP is determined in ALDH^+ and ordinary kuramochi cells. IC50 is determined by assessing the cell viability under different concentration of BP. For example, cell viability was determined by XTT assay (Biological Industries Ltd., Kibbutz Beit Haemek, Israel) following the instruction provided by the manufacturer. […] After 2-5 h of incubation at 37° C., plates were analyzed by spectrophotometry to determine the optical density of the solutions at a wavelength of 450 nm (reference wavelength, 650 nm) to determine viable cell number. […] The equation is expressed as follows: Y=d+(a−d)/(1+(X/c)^B), where Y is the response, and X is the concentration. […]

[2] = system: ALDH^+ kuramochi cells; assay: XTT cell viability assay, ALDH+ kuramochi cells (cancer stem cells); format: cell-based; conditions: Homo sapiens, 48 h, BP 0-400 μg/ml
Experimental: To evaluate and characterize the kuramochi cells, the expression of the cancer stem cell (CSC) marker, ALDH, was assessed using flow cytometry. Specifically, fluorescence-activated cell sorting (FACS) was used to isolate ALDH^+ cells from the kuramochi cell line. Then, the Aldefluor assay kit (Stem Cell Technologies, Cambridge, Mass., USA) was used to determine the ALDH activity. The activated Aldefluor reagent was used to trypsinized and incubated with cells for 50 min at 37° C. Cells were incubated with the inhibitor, N,N-diethylaminobenzaldehyde (DEAB), as control cells to identify for ALDH^+ and ALDH^− cell populations. […]
as §1

[3] = system: ALDH^+ kuramochi cells; assay: Boyden chamber (transwell) cell migration assay; format: cell-based, human; conditions: 48 hours, vs untreated cells
Experimental: For assessment of cell migration, kuramochi cells (5×10^4 cells) were seeded into the top well of a Boyden chamber (24-well transwell) with a pore size of 8 m (Costar, Corning Inc., Corning, N.Y., USA). The cells were allowed to migrate toward the lower well filled with the same culture medium with BP at a concentration of 100 or 200 μg/ml or without BP treatment. After 48 hours of migration, crystal violet (Sigma) was used to stain the migrated cells. The stained cells were counted using a bright-field microscope. Each experiment was repeated three times.

[4] = system: ALDH^+ kuramochi cells; assay: Matrigel-coated Boyden chamber invasion assay; format: cell-based, human; conditions: 24 hours, vs untreated cells
Experimental: For assessment of cell invasion, the invasion assays were carried out in Matrigel-coated Boyden chambers (filter pore size, 8 μM) in 24-well plates (BD). In the top wells, culture medium without serum was seeded with 5×10^4 cells. The bottom wells were added with medium containing 10% FBS and BP (0, 100, or 200 μg/ml). Treatments were added to both upper and lower chambers as indicated. After 24 hours, the free cells were removed gently with a cotton swab. The invading cells were fixed with 4% formaldehyde and Giemsa stained. The slides were air-dried and photographed, and the cells were counted.

[5] = system: ALDH^+ kuramochi cells; assay: TUNEL apoptosis assay in cultured cells; format: cell-based, human; conditions: BP 200 μg/ml for 48 hours vs no BP, p<0.01
Experimental: (§2) The level of apoptosis was compared between ALDH^+ kuramochi cells with and without BP treatment using the terminal deoxynucleotidyl transferase dUTP nick end labeling (TUNEL) assay. TUNEL assay was carried out to evaluate cell apoptosis using a TUNEL Assay Kit (Roche, Ind., USA) according to the manufacturer's instructions. Specifically, ALDH^+ kuramochi cells were seeded with 1×10^5 cells in each well of 12-well culture plates. Cultured cells were allowed to attach for 24 hours, and then treated with 200 μg/ml of BP for 48 hours. Adherent tumor cells were fixed in 4% paraformaldehyde. TUNEL probes were used to detect breaks in DNA strands, followed by incubation in a permeabilization solution for 2 min on ice. Cells were washed twice in phosphate buffered saline (PBS) and the TUNEL reaction mixture was added, followed by incubation at 37° C. for 60 min in a humidified atmosphere in the dark. Samples were washed in PBS twice and observed under a fluorescence microscope.

[6] = system: ALDH^+ kuramochi cells; assay: Western blot of cleaved caspases in cultured cells; format: cell-based, human; conditions: BP 100 μg/ml or 200 μg/ml, 48 hours
From the text: Accordingly, the effect of BP on the apoptotic signaling pathway was further investigated by quantifying the amount of activated caspase proteins by western blot analysis. […] The cell lysates were loaded onto a gradient 5-20% sodium dodecyl sulfate-polyacrylamide gradient gel. After electrophoretic separation, the proteins were transferred to a polyvinylidene difluoride membrane (Bio-Rad). The membrane was blocked at room temperature in a solution of 3% non-fat dry milk in PBS and 0.1% Tween-20 and then rinsed in PBS/0.1% Tween-20. Blots were incubated with diluted solutions of polyclonal anti-caspase 3 and 8, or anti-cleaved caspase 3, 7, 8, or 9 antibodies (1:200, St. John's Lab, London, UK) and treated with 1:5000 diluted anti-rabbit immunoglobulin G horseradish peroxidase (HRP) for staining (Amersham GE, Taipei, Taiwan). Beta-actin and tubulin proteins (Santa Cruz Biotechnology, Santa Cruz, Calif., USA) were used as internal controls. HRP signals were detected using an electrochemiluminescence kit (Promega, Fitchburg, Wis., USA).

[7] = system: ALDH^+ kuramochi cells; assay: XTT viability, BP combined with cisplatin or paclitaxel; format: cell-based, human; conditions: 72 hours
Experimental: To determine whether BP affects the toxicity of these chemotherapeutic agents, BP was added to cisplatin and paclitaxel treatment of ovarian cancer cells in vitro. ALDH^+ kuramochi cells (2500 ALDH^+ cells/well) in a 96-well plate were treated with BP (25 μg/ml) in combination with cisplatin (0, 5, or 10 μM) or with paclitaxel (0, 10 or 50 nM). Each experiment was conducted in triplicate. Plates were incubated at 37° C. with 5% CO2 for 72 hours. Viable cells were counted by the XTT assay as describe above.

[8] = system: ALDH^+ kuramochi xenograft; assay: Subcutaneous xenograft tumor growth and histology in NOD-SCID mice; format: in vivo
Experimental: To investigate tumor growth in vivo, the subcutaneous xenograft model is used widely in the research and allows easy detection of tumor growth and size. Herein, human ovarian cancer xenografts were used to investigate the tumor-inhibiting effect of BP in mice. The animal experiment procedures were approved by the Animal Research and Care Committee of the Buddhist Tzu Chi General Hospital (106-48). All procedures were performed in compliance with the National Institutes Health Guide for the Care and Use of Laboratory Animals. Non-obese, diabetic-severe combined immune deficiency mice (NOD-SCID) (strain NOD.CB17-Prkdcscid/JTcu) purchased from Tzu Chi University were used for these experiments.
ALDH^+ kuramochi cells (1×10^6) were injected subcutaneously into the backs of 4 to 5-week-old female mice. After tumors had grown to a volume of 50 mm^3, mice were separated into two groups (control and treatment groups; n=6 in each group). Controls were treated with vehicle alone (10% dimethyl sulfoxide (DMSO), 20% ethanol in PBS), and the experimental group was treated with different doses of BP (100 or 200 mg/kg) for 5 days. Tumor dimensions (length and width) were measured with calipers, and the tumor volume was determined using the following formula: volume=½ (length×width^2). […] The morphology and cell density were observed and recorded.

[9] = system: ALDH^+ kuramochi xenograft; assay: TUNEL assay of xenograft tumor tissue; format: in vivo, mice; conditions: BP 200 mg/kg, p<0.001
Experimental: as §2
With BP treatment (200 mg/kg), the tumor volumes were smaller than those of control mice treated with the vehicle starting from day 11 to day 26 (p<0.001), as shown in FIG. 7A. […] TUNEL assay was also carried out to evaluate cell viability in the xenograft tumors, using the reagents and procedures as described above but with tumor tissue fixed in formalin and embedded in paraffin and sectioned with a 3 m of thickness. […]

[10] = system: ALDH^+ kuramochi xenograft; assay: Western blot of caspases in xenograft tumors; format: in vivo, mice; conditions: xenograft treated with BP vs control without BP
Experimental: Accordingly, the effect of BP on the apoptotic signaling pathway was further investigated by quantifying the amount of activated caspase proteins by western blot analysis. Specifically, ALDH^+ kuramochi cells were treated with BP (at 100 μg/ml for 48 hours) and lysed. The cell lysates were loaded onto a gradient 5-20% sodium dodecyl sulfate-polyacrylamide gradient gel. After electrophoretic separation, the proteins were transferred to a polyvinylidene difluoride membrane (Bio-Rad). The membrane was blocked at room temperature in a solution of 3% non-fat dry milk in PBS and 0.1% Tween-20 and then rinsed in PBS/0.1% Tween-20. Blots were incubated with diluted solutions of polyclonal anti-caspase 3 and 8, or anti-cleaved caspase 3, 7, 8, or 9 antibodies (1:200, St. John's Lab, London, UK) and treated with 1:5000 diluted anti-rabbit immunoglobulin G horseradish peroxidase (HRP) for staining (Amersham GE, Taipei, Taiwan). Beta-actin and tubulin proteins (Santa Cruz Biotechnology, Santa Cruz, Calif., USA) were used as internal controls. HRP signals were detected using an electrochemiluminescence kit (Promega, Fitchburg, Wis., USA).
With BP treatment (200 mg/kg), the tumor volumes were smaller than those of control mice treated with the vehicle starting from day 11 to day 26 (p<0.001), as shown in FIG. 7A. […] TUNEL assay was also carried out to evaluate cell viability in the xenograft tumors, using the reagents and procedures as described above but with tumor tissue fixed in formalin and embedded in paraffin and sectioned with a 3 m of thickness. Also, protein levels of cleaved caspase 3, caspase 9, and caspase 7 were examined using western blots as described above to examine apoptotic pathway activation in xenograft tumors.

CCCC=C1OC(=O)c2ccccc21 [BP, n-butylidenephthalide]
IC50 ([1]; 48 h of culture, BP 0-240 μg/ml, read-out: IC50 of BP for the ordinary kuramochi cells (figure legend)): 206 µg/mL (≈ 1100 µM) | IC50 ([1]; 48 h of treatment, XTT, 4PL fit, read-out: IC50 of BP for ordinary kuramochi cells): 206 µg/mL (≈ 1100 µM) | IC50 [2]: 317 µg/mL (≈ 1690 µM) | migration of ALDH^+ cells ([3]; BP 100 μg/ml, p<0.01): significantly decreased | migration of ALDH^+ cells ([3]; BP 200 μg/ml, p<0.001): significantly decreased | invasion of ALDH^+ cells ([4]; BP 100 μg/ml, p<0.01): significantly decreased | invasion of ALDH^+ cells ([4]; BP 200 μg/ml, p<0.001): significantly decreased | TUNEL^+ cells [5]: Significantly more | protein level of cleaved caspase 7 [6]: increased | protein level of cleaved caspase 8 [6]: increased | protein level of cleaved caspase 9 [6]: increased | protein level of cleaved caspase 3 ([6]; p<0.001): increased | cell viability with cisplatin plus BP vs cisplatin without BP ([7]; BP 25 μg/ml with cisplatin 0, 5 or 10 μM, 5 μM p<0.05, 0 and 10 μM p<0.01): significantly lowered | numbers of viable cells with paclitaxel plus BP vs paclitaxel without BP ([7]; BP 25 μg/ml with zero or low concentration of paclitaxel (0, 10 nM), p<0.01): significantly less | tumor volumes vs vehicle control ([8]; BP 200 mg/kg for 5 days, day 11 to day 26, p<0.001): smaller | nuclei of xenograft tumors (H & E staining) vs control ([8]; BP-treated xenograft tumors): denser | TUNEL^+ cells in xenograft tumors [9]: significantly more | protein level of caspase 7 in xenograft [10]: increased | protein level of caspase 9 in xenograft [10]: increased | protein level of cleaved caspase 3 in xenograft [10]: increased

Source: US20220117929A1, “METHOD FOR PREVENTING OR TREATING HIGH-GRADE SEROUS CARCINOMA” (Buddhist Tzu Chi Medical Foundation, priority 2020, published 2022)
